Experimental data reported in patent publication US4605673A, “7H-dibenzo(a,c,)cyclohepten-5-one-(7) derivatives” (Warner-Lambert Company, priority 1982, dated 1986).
Structures can show the parent of a compound that is named as a salt. Where two headings read alike, the source gives them in different places.

Experiments:
[1] = system: spontaneous motility; test: (C) Locomotive activity (spontaneous motility), photoelectric systems; type: in vivo; details: mice; for Spontaneous motility (C), M = methaqualone: 40 m/g i.g.
Description: (C) The locomotive activity reflects the stimulating or depressive effects on the C.N. system. The spontaneous motility (impulses per minute) was measured in mice by means of photoelectric systems according to Irwin (Rev. Can. Biol. 20, 239 (1961). K in the margin=control, (twice), M=methaqualone (40 m/g i.g.) and S=substance.

[2] = Toxicity (LD50); details: in vivo
[3] = system: blood-pressure effect of noradrenaline and adrenaline; test: (F) Autonomous test model after IV catecholamine administration (potentiation of blood-pressure effect of noradrenaline and adrenaline); type: in vivo, dogs; details: for Potentiation of catecholamine blood-pressure effect (F): dogs, result in words
Excerpt: (F) Autonomous test model in dogs after IV catecholamine administration.

[4] = system: mydriasis; test: (E) Anticholinergic action measured as mydriasis; type: in vivo, mice; details: mice
Excerpt: (§1) (E) Anticholinergic action measured as mydriasis (mice).

[5] = system: hexobarbital sleeping period; test: (D) Hexobarbital sleeping period (central sedating or stimulating effects); type: in vivo; details: mice, 82.5 mg/kg hexobarbital IV
Description: (D) The lengthening of the sleeping period is a common in vivo method for the determination of central sedating or stimulating effects. The test animals are mice subsequent to intravenous (IV) injection with 82.5 mg/kg hexobarbital. The influence on the sleeping period under the trial substance is given in % for control purposes.

[6] = system: gastric secretion; test: Shay preparation, gastric secretion; type: in vivo; details: po
[7] = system: Reserpine-induced hypothermia; test: (A) Reserpine-induced hypothermia in mice (antidepressive action); type: in vivo; details: Mus musculus, read-out: Minimal dosage which leads to normalization of body temperature (A)
Excerpt: The minimal dosage is given which leads to normalization of body temperature measured rectally.

[8] = (E) Anticholinergic action measured as mydriasis; type: in vivo, mice; details: mouse, in vivo, po
Excerpt: as §1

[9] = 10 mg/kg s.c., control K 12 (4A), 13 (4B)

| SMILES | LD50 ([2]; po, i.g.) [mg/kg] | Potentiation of catecholamine blood-pressure effect (F) [3] | Anticholinergic action (mydriasis) (E) ([4]; up to 75 mg/kg s.c.) | minimal effective dose ([7]; po, i.g.) [mg/kg] | minimal effective dose ([7]; sc) [mg/kg] | other results |
| --- | --- | --- | --- | --- | --- | --- |
| Cc1ccccc1-n1c(C)nc2ccccc2c1=O [M] | – | – | – | – | – | Spontaneous motility (C), M = methaqualone ([1]; Amitryptyline column, control K 20): 2 impulses per minute; Spontaneous motility (C), M = methaqualone ([1]; Example 1 column, control K 20): 2 impulses per minute; Spontaneous motility (C), M = methaqualone ([1]; Example 4A column, control K 16): 3 impulses per minute; Spontaneous motility (C), M = methaqualone ([1]; Example 4B column, control K 20): 2 impulses per minute; Spontaneous motility (C), M = methaqualone ([1]; Example 4C column, control K 19): 6 impulses per minute |
| CCN(CC)CCOc1cc(=O)c2ccccc2c2ccccc12 [Example 1, 5-(2-Diethylaminoethoxy)-7H-dibenzo(a,c)cyclohepten-5-one(7).hydrochloride] | 300 | no effect | no effect | 20 | 5 | Spontaneous motility (C), S = substance ([1]; 5 mg/kg s.c., control K 17): 20 impulses per minute; Influence on the sleeping period (D) ([5]; 5 mg/kg s.c.): -42%; inhibition at 25 mg/kg ([6]; Shay preparation, 25 mg/kg i.g.): 56% |
| CN(C)CCC=C1c2ccccc2CCc2ccccc21 [Amitryptyline, reference compound] | 200 | – | – | – | 5 | LD50 ([2]; sc): 100 mg/kg; ED50 ([3]; Canis lupus familiaris, iv, read-out: Potentiation of catecholamine blood-pressure effect ED50 (F)): 1 mg/kg; ED50 [8]: 23 mg/kg; Spontaneous motility (C), S = substance ([1]; 5 mg/kg s.c., control K 17): 4 impulses per minute; Influence on the sleeping period (D) ([5]; 5 mg/kg s.c.): +103% |
| CNCCCc1cc(=O)c2ccccc2c2ccccc12 [Example 4C, 5-(3-methylaminopropyl)-7H-dibenzo(a,c)cyclohepten-5-one(7).oxalate] | 800 | no effect | – | 75 | – | Anticholinergic action (mydriasis) (E) ([4]; up to 200 mg/kg i.g.): no effect; Spontaneous motility (C), S = substance ([1]; 150 mg/kg i.g., control K 15): 19 impulses per minute |
| CN(C)CCCc1cc(=O)c2ccccc2c2ccccc12 [Example 4A, 5-(3-Dimethylaminopropyl)-7H-dibenzo(a,c)cyclohepten-5-one(7)] | 200 | no effect | no effect | 20 | 5 | Spontaneous motility (C), S = substance [1, 9]: 12 impulses per minute |
| CCN(CC)CCCc1cc(=O)c2ccccc2c2ccccc12 [Example 4B, 5-(3-Diethylaminopropyl)-7H-dibenzo(a,c)cyclohepten-5-one(7).oxalate] | 200 | no effect | no effect | 30 | 10 | Spontaneous motility (C), S = substance [1, 9]: 21 impulses per minute; Influence on the sleeping period (D) ([5]; 10 mg/kg s.c.): +11% |
| CN/C(=N/CCSCc1nc[nH]c1C)NC#N [cimetidine, reference compound] | – | – | – | – | – | inhibition at 80 mg/kg ([6]; read-out: Inhibition of gastric secretion): 45% |
